# Results: the supplement of paper PMC10307832
# How the values were obtained:
# Experiment in all cases: relative viability (nuclei count vs DMSO), 5 days (fraction); higher = more cells survive
# CUDC-101 = compound: C#Cc1cccc(Nc2ncnc3cc(OC)c(OCCCCCCC(=O)NO)cc23)c1 [CUDC-101]
# In short: (§1)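 A plate was accepted only when its control CV was below 25% and the cells had doubled at least once. Viability is defined from nuclear counts as treated wells divided by vehicle wells, with the median taken across plates. That median covers lung cancer cell lines grown in 1536-well plates, dosed by pinning at five √10-spaced library-drug concentrations, and counted in MetaXpress from 4× Hoechst images after 5 days.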
# Vandetanib = compound: COc1cc2/c(=N/c3ccc(Br)cc3F)nc[nH]c2cc1OCC1CCN(C)CC1 [Vandetanib]
# In short: as §1
# NVP-TAE684 = compound: COc1cc(N2CCC(N3CCN(C)CC3)CC2)ccc1Nc1ncc(Cl)c(Nc2ccccc2S(=O)(=O)C(C)C)n1 [NVP-TAE684]
# In short: as §1
# Vandetanib + Crizotinib = compound: COc1cc2/c(=N/c3ccc(Br)cc3F)nc[nH]c2cc1OCC1CCN(C)CC1 [Vandetanib] + C[C@@H](Oc1cc(-c2cnn(C3CCNCC3)c2)cnc1N)c1c(Cl)ccc(F)c1Cl [Crizotinib] (partner 1 µM)
# In short: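 Nuclei were stained with Hoechst during a one-step fixation (final 0.05% Triton X-100, 1% formaldehyde, 1 ug/ml Hoechst) carried out 5 days after dosing, then counted on 4× images. The cells, lung cancer lines in 1536-well plates, had been dosed by pin tool the day after seeding with one drug alone or a fixed anchor-drug dose plus five library-drug doses (not always all listed) in √10 steps. Relative viability is the nuclei count in treated wells divided by that in vehicle wells, and each value is the median of duplicate plates.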
Cell Line,relative viability (CUDC-101; 0.01 µM),relative viability (CUDC-101; 0.03162 µM),relative viability (CUDC-101; 0.1 µM),relative viability (CUDC-101; 0.3162 µM),relative viability (CUDC-101; 1 µM),relative viability (Vandetanib; 0.02 µM),relative viability (Vandetanib; 0.06325 µM),relative viability (Vandetanib; 0.2 µM),relative viability (Vandetanib; 0.6325 µM),relative viability (Vandetanib; 2 µM),relative viability (NVP-TAE684; 0.2 µM),relative viability (NVP-TAE684; 0.6325 µM),relative viability (NVP-TAE684; 2 µM),relative viability (Vandetanib + Crizotinib; first compound 0.02 µM),relative viability (Vandetanib + Crizotinib; first compound 0.06325 µM),relative viability (Vandetanib + Crizotinib; first compound 0.2 µM),relative viability (Vandetanib + Crizotinib; first compound 0.6325 µM),relative viability (Vandetanib + Crizotinib; first compound 2 µM)
LCLC-97TM1,1.05,0.917,1.06,1.02,0.832,1.05,0.939,1.01,1.05,0.832,0.897,0.735,0.471,0.32,0.342,0.232,0.459,0.441
LCLC-103H,0.987,1.01,1.06,1.05,0.926,0.959,0.92,1.05,0.899,0.931,1.08,0.956,0.938,1.03,1.01,1.12,1.05,1
LK-2,1.09,0.978,0.948,0.885,0.546,0.97,0.969,0.966,1.06,0.815,1.09,0.924,0.356,0.217,0.222,0.225,0.219,0.233
LOU-NH91,1.06,0.846,0.932,0.872,0.646,0.986,0.869,0.825,0.823,0.859,0.966,0.833,0.703,0.766,0.656,0.637,0.558,0.533
LU99A,1.07,0.877,0.808,0.9,0.58,0.839,0.846,0.92,0.895,0.951,0.998,0.942,0.616,0.546,0.498,0.63,0.522,0.577
LXF-289,1.01,1.03,0.997,0.971,0.908,1.01,1.02,1.03,0.985,0.968,1.02,1.01,0.907,0.801,0.789,0.827,0.828,0.792
NCI-H23,1.13,1,1.1,1.11,0.922,1.09,0.975,0.894,0.926,0.901,0.989,0.796,0.538,0.64,0.573,0.514,0.527,0.451
NCI-H322M,0.889,0.846,0.768,0.739,0.474,0.895,0.879,0.872,0.797,0.538,1.02,0.795,0.636,0.899,0.952,0.937,0.88,0.897
NCI-H358,1.04,0.873,0.91,0.804,0.63,0.918,0.86,0.877,0.731,0.568,0.898,0.791,0.289,0.659,0.636,0.137,0.397,0.321
NCI-H441,1.04,1.09,0.981,1.13,0.844,1.03,0.948,0.983,1.15,0.939,0.898,1.15,0.587,0.926,0.751,0.687,0.88,0.856
NCI-H460,1,0.902,0.977,1.01,0.996,0.964,0.992,1.02,1,0.963,1.08,1.02,–,0.902,0.786,0.0179,0.972,0.804
NCI-H520,0.997,0.914,0.982,1.02,0.686,0.995,0.986,0.925,0.95,0.938,0.969,0.986,0.767,0.923,0.894,0.859,0.772,0.655
NCI-H596,0.97,1.01,1.04,1.05,0.88,0.937,0.876,0.954,0.993,1,0.959,1.03,–,0.907,0.872,1.2,1.12,0.81
NCI-H647,1.08,0.899,1.04,0.987,0.801,0.965,0.946,0.968,0.933,0.872,0.924,1.01,0.723,1.06,1.07,1.1,1.06,0.981
NCI-H650,1.13,1.02,1.14,0.98,0.849,1.02,1,0.907,1.06,0.403,1.01,0.662,0.622,0.709,0.703,0.758,0.605,0.724
NCI-H661,1.01,0.907,1.02,0.945,0.637,0.943,0.989,0.967,1.05,0.901,0.99,0.972,0.95,0.969,–,0.99,1.06,1.03
NCI-H727,0.954,0.869,1.04,0.827,0.629,0.894,0.809,0.906,0.796,0.681,0.806,0.91,0.515,0.821,0.885,0.786,0.65,0.687
NCI-H838,0.988,0.922,0.992,1.02,0.871,0.938,0.902,0.973,0.94,0.957,–,0.792,0.545,0.819,0.846,0.898,0.819,0.724
